Source: patent publication US12673022B2, “Drug delivery system using solution” (Kyoto University, priority 2018, dated 2026)

Legend:
[1] = test system: EGFP reporter cells (C2C12 cells); test: EGFP-SSA assay: uptake of Cas9 protein/gRNA complex into cells (EGFP positive rate); format: cell-based, mouse; conditions: Example 1; compound 250.0 mM; reaction solution 1 (550 mM sodium chloride, 1 mM HEPES, Cas9 protein/gRNA), 30 minutes
Text: EGFP-SSA assay: an abbreviation of EGFP-single strand annealing assay. The reporter cassette shown in FIG. 1 is inserted in EGFP reporter cells. In the middle of the EGFP sequence of the cassette, MmDMD-Ex51 sequence is inserted. Since the presence of MmDMD-Ex51 sequence, by which EGFP ORF is divided, EGFP protein is not usually translated. However, when target sequence of MmDMD-Ex51 is cleaved by Cas9 protein/gRNA complex, the upstream region (EG part) and the downstream region (FP part) of EGFP ORF are annealed via a homology area into a single strand, with the result that a full-length EGFP ORF emerges to produce EGFP protein. Based on this principle, the ratio of the number of cells producing EGFP is checked by the EGFP-SSA assay. In this manner, the amount of Cas9 protein/gRNA complex delivered to cells can be predicted.
(§1) Cas9 protein (0.4 μg), tracrRNA (34.18 ng), MmDmd Ex51 crRNA (29.48 ng), a 1 M HEPES buffer (0.05 μL) and a 5 M aqueous sodium chloride solution (5.5 μL) were mixed and diluted with UltraPure DNase/RNase-Free Distilled Water up to a liquid volume of 37.5 μL so as to obtain final concentrations: 8 ng/μL Cas9 protein, 0.68 ng/μL tracrRNA, 0.59 ng/μL MmDmd Ex51 crRNA, 1 mM HEPES, 550 mM sodium chloride, and 250 mM compound. To this solution, a 1000 mM compound solution (12.5 μL) was added and the solution mixture was incubated at normal temperature for 15 minutes.
as §1, with “buffer (2.5” for “buffer (0.05”, “solution (4.85” for “solution (5.5”, “crRNA, 50” for “crRNA, 1”, “HEPES, 485” for “HEPES, 550”, “minutes. Note that, in the cases where the final concentrations of the compound are 0.69 mM, 25 mM, 100 mM, 125 mM, 160 mM, 200 mM and 500 mM, the compound stock solution was diluted with UltraPure DNase/RNase-Free Distilled Water up to concentrations of 2.76 mM, 100 mM, 400 mM, 500 mM, 640 mM, 800 mM and 2000 mM, respectively, and then, added. […]” for “minutes.”
Cas9 protein (2.0 μg), tracrRNA (170.9 ng), MmDmd Ex51 crRNA (147.4 ng), a 1 M HEPES buffer (12.5 μL), a 5 M aqueous sodium chloride solution (18.35 μL) and a 1 M aqueous GABA solution (62.5 μL) were mixed, diluted with UltraPure DNase/RNase-Free Distilled Water up to a liquid volume of 250 μL so as to obtain final concentrations: 8 ng/μL Cas9 protein, 0.68 ng/μL tracrRNA, 0.59 ng/μL MmDmd Ex51 crRNA, 50 mM HEPES, 250 mM GABA and 367 mM sodium chloride, and incubated at normal temperature for 15 minutes. Note that the addition amount of the 5 M aqueous sodium chloride solution was changed to 24.25 μL in the case of 485 mM sodium chloride and the addition amount was changed to 27.5 μL in the case of 550 mM sodium chloride, respectively.

[2] = test system: EGFP reporter cells (C2C12 cells); test: Number of HOECHST cells detected (cell viability) in the EGFP-SSA assay; conditions: Example 1; compound 250.0 mM vs 250 mM GABA positive control on the same plate; formula (2)
Protocol: To each of the solutions, a complex of gRNA and Cas9 protein was further dissolved. Mouse myoblasts (C2C12 cells) were contacted with each of the solutions in vitro, and target gene cleavage activity and cell viability were evaluated.

NC(=O)N[C@@H](CC(=O)O)C(=O)O [N-Carbamyl-L-aspartic acid]
Compound activity: EGFP positive rate (%) [1]: 8.53% | Relative ratio to GABA: Number of HOECHST cells [2]: 1.19
